Laboratory results: patent US20250051347A1, “BIFUNCTIONAL CHIMERIC HETEROCYCLIC COMPOUND AND USE THEREOF AS ANDROGEN RECEPTOR DEGRADER” (Hinova Pharmaceuticals, Inc., priority 2021, published 2025)

target: T1, androgen receptor (AR) splicing variant AR-v7 (Homo sapiens, UniProt P10275); assay: Degradation activity on androgen receptor splicing variant AR-v7 in 22RV1 cells (ELISA); assay type: cell-based; conditions: AR-v7 degradation in 22RV1 cells, 48 h, class symbols
T1 construct: The degradation activity of compounds on AR-v7 in 22RV1 cells; host or cells: 22RV1 cells
T1 sequence (P10275 1-644 isoform P10275-3): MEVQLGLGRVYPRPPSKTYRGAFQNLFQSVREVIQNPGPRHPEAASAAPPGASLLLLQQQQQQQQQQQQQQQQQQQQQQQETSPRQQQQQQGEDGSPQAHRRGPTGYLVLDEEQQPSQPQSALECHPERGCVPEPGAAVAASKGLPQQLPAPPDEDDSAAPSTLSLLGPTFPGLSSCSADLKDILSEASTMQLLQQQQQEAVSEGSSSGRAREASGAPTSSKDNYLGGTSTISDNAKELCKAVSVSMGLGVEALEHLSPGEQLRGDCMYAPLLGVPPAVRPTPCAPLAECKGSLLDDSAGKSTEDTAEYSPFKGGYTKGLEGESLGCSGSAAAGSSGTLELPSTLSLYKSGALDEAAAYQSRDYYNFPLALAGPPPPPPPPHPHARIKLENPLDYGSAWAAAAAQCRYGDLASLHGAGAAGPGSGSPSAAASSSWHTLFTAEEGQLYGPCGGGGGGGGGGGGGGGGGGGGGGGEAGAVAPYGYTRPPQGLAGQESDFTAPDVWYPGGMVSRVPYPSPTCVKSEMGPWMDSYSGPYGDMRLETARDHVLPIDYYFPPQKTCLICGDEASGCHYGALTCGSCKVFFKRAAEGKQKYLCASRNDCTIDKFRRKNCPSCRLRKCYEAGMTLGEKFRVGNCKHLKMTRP

| SMILES | DC50 |
| --- | --- |
| CC(=O)c1nccc(COc2ccc(C(C)(C)c3ccc(O[C@H]4C[C@H](N(C)c5ccc6c(c5)C(=O)N(C5CCC(=O)NC5=O)C6=O)C4)cc3)cc2)n1 (stereo partly drawn) [Example 111, 5-(((trans)-3-(4-(2-(4-((2-acetylpyrimidin-4-yl)methoxy)phenyl)propan-2-yl)phenoxy)cyclobutyl)(methyl)amino)-2-(2,6-dioxopiperidin-3-yl)isoindolin-1,3-dione] | 101 to 1000 nM |
| Cn1cc(-c2cccc(COc3ccc(C(C)(C)c4ccc(O[C@H]5C[C@@H](Nc6ccc7c(c6)C(=O)N(C6CCC(=O)NC6=O)C7=O)C5)cc4)cc3)n2)cn1 (stereo partly shown) [Example 418] | 11 to 100 nM |
| CCC(CC)(c1ccc(OCCCCCCCCOCCCCNc2ccc3c(c2)C(=O)N(C2CCC(=O)NC2=O)C3=O)cc1)c1ccc(OCc2ccnc(NS(C)(=O)=O)n2)cc1 (stereo not shown) [Example 57, N-(4-((4-(3-(4-((8-(4-((2-(2,6-dioxopiperidin-3-yl)-1,3-dioxoisoindolin-5-yl)amino)butoxy)octyl)oxy)phenyl)pentan-3-yl)phenoxy)methyl)pyrimidin-2-yl)methanesulfonamide] | 101 to 1000 nM |
| CC(C)(c1ccc(OCCCNc2ccc3c(c2)C(=O)N(C2CCC(=O)NC2=O)C3=O)cc1)c1ccc(OCc2ccnc(N3CCCC3)n2)cc1 (stereo not shown) [Example 440, 2-(2,6-dioxopiperidin-3-yl)-5-((3-(4-(2-(4-((2-(pyrrolidin-1-yl)pyrimidin-4-yl)methoxy)phenyl)propan-2-yl)phenoxy)propyl)amino)isoindolin-1,3-dione] | 11 to 100 nM |
| CC(=O)c1nccc(COc2ccc(C(C)(C)c3ccc(OCCCNc4cccc5c4C(=O)N(C4CCC(=O)NC4=O)C5=O)cc3)cc2)n1 (stereo not shown) [Example 344, 4-((3-(4-(2-(4-((2-acetylpyrimidin-4-yl)methoxy)phenyl)isopropan-2-yl)phenoxy)propyl)amino)-2-(2,6-dioxopiperidin-3-yl)isoindolin-1,3-dione] | 1000 to 5000 nM |
| CC(C)(c1ccc(Oc2ccc(-n3ccnn3)nn2)cc1)c1ccc(O[C@H]2C[C@H](Nc3ccc4c(c3)C(=O)N(C3CCC(=O)NC3=O)C4=O)C2)cc1 (stereo partly shown) [Example 325] | 11 to 100 nM |
| CN1CCN(c2ncc(COc3ccc(C(C)(C)c4ccc(OC5CC(Nc6ccc7c(c6)C(=O)N(C6CCC(=O)NC6=O)C7=O)C5)cc4)cc3)cn2)CC1 (stereo not shown) [Example 534] | 11 to 100 nM |
| CC(O)c1nccc(COc2ccc(C(C)(C)c3ccc(O[C@H]4CC[C@H](Nc5ccc6c(c5)C(=O)N(C5CCC(=O)NC5=O)C6=O)CC4)cc3)cc2)n1 (stereo partly shown) [Example 354, 2-(2,6-dioxopiperidin-3-yl)-5-(((1r,4r)-4-(4-(2-(4-((2-(1-hydroxylethyl)pyrimidin-4-yl)methoxy)phenyl)isopropan-2-yl)phenoxy)cyclohexyl)amino)isoindolin-1,3-dione] | 1000 to 5000 nM |
| CC(C)(c1ccc(OCCCNc2cccc3c2C(=O)N(C2CCC(=O)NC2=O)C3=O)cc1)c1ccc(OCc2cnc(N3CCOCC3)s2)cc1 (stereo not shown) [Example 435, 2-(2,6-dioxopiperidin-3-yl)-4-((3-(4-(2-(4-((2-morpholinethiazol-5-yl)methoxy)phenyl)propan-2-yl)phenoxy)propyl)amino)isoindolin-1,3-dione] | 1000 to 5000 nM |
| CC(C)(c1ccc(OCc2ccnc(N3CC4(COC4)C3)n2)cc1)c1ccc(OCC2(CNc3ccc4c(c3)C(=O)N(C3CCC(=O)NC3=O)C4=O)CC2)cc1 (stereo not shown) [Example 495] | 101 to 1000 nM |
| CC(C)(c1ccc(OCc2ccnc(N3CC4(COC4)C3)n2)cc1)c1ccc(OC[C@@H]2CCN2Cc2ccc3c(c2)C(=O)N(C2CCC(=O)NC2=O)C3=O)cc1 (stereo partly shown) [Example 566] | 1000 to 5000 nM |
| CC(=O)c1nccc(COc2ccc(C(C)(C)c3ccc(OCC4CN(c5ccc6c(c5)C(=O)N(C5CCC(=O)NC5=O)C6=O)C4)cc3)cc2)n1 (stereo not shown) [Example 485, 5-(3-((4-(2-(4-((2-acetylpyrimidin-4-yl)methoxy)phenyl)propan-2-yl)phenoxy)methyl)azetidin-1-yl)-2-(2,6-dioxopiperidin-3-yl)isoindolin-1,3-dione] | 11 to 100 nM |
| CC(C)(c1ccc(Oc2ccc(N3CC4(COC4)C3)nc2)cc1)c1ccc(O[C@H]2C[C@H](Nc3ccc4c(c3)C(=O)N(C3CCC(=O)NC3=O)C4=O)C2)cc1 (stereo partly shown) [Example 214] | 11 to 100 nM |

Now from value to molecule:

| DC50 | SMILES |
| --- | --- |
| 101 to 1000 nM | Cc1nc(COc2ccc(C(C)(C)c3ccc(OCCCNc4cccc5c4C(=O)N(C4CCC(=O)NC4=O)C5=O)cc3)cc2)cs1 (stereo not shown) [Example 224, 2-(2,6-dioxopiperidin-3-yl)-4-((3-(4-(2-(4-((2-methylthiazol-4-yl)methoxy)phenyl)propan-2-yl)phenoxy)propyl)amino)isoindolin-1,3-dione] |
| 11 to 100 nM | CC(C)(c1ccc(OCc2ccc(F)c(-n3ccnn3)n2)cc1)c1ccc(O[C@H]2C[C@H](Nc3ccc4c(c3)C(=O)N(C3CCC(=O)NC3=O)C4=O)C2)cc1 (stereo partly shown) [Example 286] |
| 11 to 100 nM | CC(C)(c1ccc(OCc2ccnc(OC3CN(C4CC4)C3)n2)cc1)c1ccc(O[C@H]2C[C@@H](Nc3ccc4c(c3)C(=O)N(C3CCC(=O)NC3=O)C4=O)C2)cc1 (stereo partly shown) [Example 467, 5-(((1s,3s)-3-(4-(2-(4-((2-((1-cyclopropylazetidin-3-yl)oxy)pyrimidin-4-yl)methoxy)phenyl)propan-2-yl)phenoxy)cyclobutyl)amino)-2-(2,6-dioxopiperidin-3-yl)isoindolin-1,3-dione] |
| 1000 to 5000 nM | CC(C)(c1ccc(OCCCCCCCOCCCOCCCNc2cccc3c2C(=O)N(C2CCC(=O)NC2=O)C3=O)cc1)c1ccc(OCc2ccnc(NS(C)(=O)=O)n2)cc1 (stereo not shown) [Example 23] |
| < 10 nM | Cc1noc(-c2ncc(Oc3ccc(C4(c5ccc(O[C@H]6C[C@H](Nc7ccc8c(c7)C(=O)N(C7CCC(=O)NC7=O)C8=O)C6)cc5)CCCC4)cc3)cn2)n1 (stereo partly shown) [Example 297] |
| 101 to 1000 nM | CC(C)(c1ccc(OCCCNc2ccc3c(c2)C(=O)N(C2CCC(=O)NC2=O)C3=O)cc1)c1ccc(OCc2nc(C(=O)N3CCC3)no2)cc1 (stereo not shown) [Example 139, 5-((3-(4-(2-(4-((3-(azetidin-1-carbonyl)-1,2,4-oxadiazol-5-yl)methoxy)phenyl)propan-2-yl)phenoxy)propyl)amino)-2-(2,6-dioxopiperidin-3-yl)isoindolin-1,3-dione] |
| 11 to 100 nM | Cc1nc(-c2cccc(COc3ccc(C(C)(C)c4ccc(O[C@H]5C[C@H](Nc6ccc7c(c6)C(=O)N(C6CCC(=O)NC6=O)C7=O)C5)cc4)cc3)n2)no1 (stereo partly shown) [Example 283] |
| 11 to 100 nM | CC(C)(c1ccc(OCc2ccnc(N3CC4CNCC4C3)n2)cc1)c1ccc(OC2CC(Nc3ccc4c(c3)C(=O)N(C3CCC(=O)NC3=O)C4=O)C2)cc1 (stereo not shown) [Example 80] |
| 11 to 100 nM | Cc1nc(-c2ccc(Oc3ccc(C4(c5ccc(O[C@H]6C[C@H](Nc7ccc8c(c7)C(=O)N(C7CCC(=O)NC7=O)C8=O)C6)cc5)CC4)cc3)nn2)no1 (stereo partly shown) [Example 376, 2-(2,6-dioxopiperidin-3-yl)-5-(((1r,3r)-3-(4-(1-(4-((6-(5-methyl-1,2,4-oxadiazol-3-yl)pyridazine-3-yl)oxy)phenyl)cyclopropyl)phenoxy)cyclobutyl)amino)isoindolin-1,3-dione] |
| 11 to 100 nM | Cc1nc(-c2ccc(Oc3ccc(C(C)(C)c4ccc(O[C@H]5C[C@H](Nc6ccc7c(c6)C(=O)N(C6CCC(=O)NC6=O)C7=O)C5)cc4)cc3)nc2)no1 (stereo partly shown) [Example 546] |
| 11 to 100 nM | CC(C)(c1ccc(OCc2nc(N3CC4(COC4)C3)ncc2Cl)cc1)c1ccc(O[C@H]2C[C@H](Nc3ccc4c(c3)C(=O)N(C3CCC(=O)NC3=O)C4=O)C2)cc1 (stereo partly shown) [Example 202, 5-((1r,3r)-3-(4-(2-(4-((5-chloro-2-(2-oxa-6-azaspiro[3.3]heptan-6-yl)pyrimidin-4-methoxy)phenyl)propan-2-yl)phenoxy)cyclobutyl)amino)-2-(2,6-dioxopiperidin-3-yl)isoindolin-1,3-dione] |

same assay, conditions: AR-v7 degradation in 22RV1 cells, 48 h, numeric values

| DC50 | SMILES |
| --- | --- |
| > 10000 nM | CC(=O)c1nccc(COc2ccc(C(C)(C)c3ccc(OC4CCN(c5ccc6c(c5)C(=O)N(C5CCC(=O)NC5=O)C6=O)CC4)cc3)cc2)n1 (stereo not shown) [Example 557] |
| > 10000 nM | CC(C)(c1ccc(OCc2ccnc(NS(C)(=O)=O)n2)cc1)c1ccc(OCC2CN(c3ccc4c(c3)C(=O)N(C3CCC(=O)NC3=O)C4=O)C2)cc1 (stereo not shown) [Example 48, N-(4-((4-(2-(4-((1-(2-(2,6-dioxopiperidin-3-yl)-1,3-dioxoisoindolin-5-yl)azetidin-3-yl)methoxy)phenyl)propan-2-yl)phenoxy)methyl)pyrimidin-2-yl)methanesulfonamide] |
| 8760 nM | CC(C)(c1ccc(OCc2ccnc(NS(C)(=O)=O)n2)cc1)c1ccc(OCC2CCN(C[C@H]3CC[C@H](CN4CCN(c5ccc6c(c5)C(=O)N(C5CCC(=O)NC5=O)C6=O)CC4)CC3)CC2)cc1 (stereo partly shown) [Example 45] |
| > 10000 nM | CC(C)(c1ccc(OCCCCCOCCCOCC2CCN(c3ccc4c(c3)C(=O)N(C3CCC(=O)NC3=O)C4=O)C2)cc1)c1ccc(OCc2ccnc(NS(C)(=O)=O)n2)cc1 (stereo not shown) [Example 52, N-(4-((4-(2-(4-((5-(3-((1-(2-(2,6-dioxopiperidin-3-yl)-1,3-dioxoisoindolin-5-yl)pyrrolidin-3-yl)methoxy)propoxy)pentyl)oxy)phenyl)propan-2-yl)phenoxy)methyl)pyrimidin-2-yl)methanesulfonamide] |
